Results: US20110039898A1, “METHOD FOR SCAVENGING FREE RADICALS AND INHIBITING TYROSINASE AND MELANIN” (priority 2009, published 2011)

How the values were obtained:
melanin of B16-F10 cells = test: Melanin content assay in situ; type: cell-based; settings: for inhibition of melanin of B16-F10 cells: three days, nicotinyl hydroxamic acid 10, 20, 40, 60 μM
Method: Melanin Content Assay In Situ
B16-F10 cells (1×10^5) were placed on a 60 mm culture dish. The nicotinyl hydroxamic acid and the N-methyl nicotinic acid hydroxamate iodide with various concentrations were respectively added and cultivated for three days in a culture box. After removal of the upper clean solution, the cells were washed two times using a PBS. The melanin was dissolved by 1N NaOH (90° C., 30 minutes). The melanin content was then measured (405 nm).

TRP-2 = test: Western blot of B16-F10 cells: TRP-2; type: cell-based; settings: B16-F10 cells treated 24 hours
p-MEK = test: Western blot of B16-F10 cells: p-MEK; type: cell-based
From the text: (§1) Additionally, according to the analytical results obtained using the western blot method, it was shown that the expression of p-ERK, p-MEK and p-AKT is increased as the concentration of nicotinyl hydroxamic acid is increased. Thus, in addition to inhibition of tyrosinase and adjustment of MITF, nicotinyl hydroxamic acid also reduces the melanin content in cells through ERK and AKT/PKB pathways.

human melanocytes = test: Cell viability assay (MTT), human melanocytes; type: cell-based; settings: 24 hours
Method: (§2) The culture medium was removed from the culture dish filled with cells. The cells were washed using 10 ml of a PBS. The number of the cells was counted by a blood cell counter and diluted to a proper cell concentration. 500 µl/well of the result was added to a 24-well culture plate and cultivated in a 37° C. culture box with 5% CO2 and mist until the cells were stuck on the bottom of the culture dish. After removal of the used culture medium, a fresh drug-containing culture medium with various concentrations was added (the drug was directly added when cells were suspended) and cultivated for 24 hours in a 37° C. culture box with 5% CO2 and mist. After removal of the upper clean solution, the cells were washed two times using a PBS. An MTT solution (500 μg/ml) prepared from the medium was then added to the well and reacted for 4-6 hours in a 37° C. culture box. After removal of the upper clean solution, 100 μl of a DMSO was added until a formazan crystal was dissolved. The absorption of the result was then measured by an ELISA reader (600 nm).

p-AKT = test: Western blot of B16-F10 cells: p-AKT; type: cell-based
From the text: as §1

tyrosinase = test: Western blot of B16-F10 cells: tyrosinase; type: cell-based; settings: B16-F10 cells treated 24 hours
Method: (§3) After using nicotinyl hydroxamic acid to treat B16-F10 cells for 24 hours, proteins are extracted and analyzed using the western blot method. The contents of tyrosinase and TRP-1 are reduced as the concentration of nicotinyl hydroxamic acid is increased.

[1] = system: melanin content in B16-F10 cells; test: Melanin content in B16-F10 cells with ERK and AKT pathway inhibitors; type: cell-based
From the text: The mechanism of inhibition of melanogenesis by nicotinyl hydroxamic acid in B16-F10 cells is further described as follows. ERK and AKT/[…] pathways participate in melanogenesis. PD98059, a MEK selective inhibitor, inhibits the activity of ERK (ERK is activated by MEK). LY294002, a phosphatidylinositol 3-kinase (PI3K) inhibitor, blocks the AKT/PKB pathway. The two inhibitors are used to determine the participation of nicotinyl hydroxamic acid in the ERK and AKT/PKA pathways. […] However, when nicotinyl hydroxamic acid is simultaneously added, the inhibition of melanin thereby is reduced by PD98059 and LY294002.

TRP-1 = test: Western blot of B16-F10 cells: TRP-1; type: cell-based; settings: B16-F10 cells treated 24 hours
Method: as §3

[2] = system: polyphenol oxidase in the apple juice; test: Polyphenol oxidase inhibition assay in apple juice; type: biochemical; settings: 5 to 200 μM; absorbance at 420 nm within two hours
Method: Polyphenol Oxidase Inhibition Assay
Apples were purchased from local supermarkets. 100 g of apples were peeled, cored and sliced prior to juicing in a blender. The preparation was with 100 ml distilled water filtered through swab and collected by centrifugation 12,000 rpm for 10 min at 4° C. The apple juice obtained was immediately collected 200 μl in a 96 well microplate and mixed nicotinyl hydroxamic acid and N-methyl nicotinic acid hydroxamate iodide (5-200 μM).

[3] = system: tyrosinase activity of B16-F10 cells; test: Tyrosinase activity assay in situ; type: cell-based; settings: three days
Method: Tyrosinase Activity Assay In Situ
B16-F10 cells (1×10^5) were placed on a 60 mm culture dish. After 12 hours, an adherent monolayer was formed on the bottom of the culture dish. After removal of the used culture medium, a fresh culture medium was added. A sample solution with various concentrations and/or 50 nM melanocytes stimulating hormone (MSH) were then added and cultivated at 37° C. for three days. After removal of the upper clean solution, the cells were washed two times using a PBS. After the cells were scraped away, protein was extracted and quantitated. One hundred μl of a phosphate buffer (250 mM, pH 6.5), 50 μl of a L-DOPA (10 mM) and 50 μl of a cell extract were sequentially added to a 96-well plate, uniformly mixed and reacted in a 37° C. culture box. The absorption of the result was then measured by an ELISA reader (475 nm).

p-ERK = test: Western blot of B16-F10 cells: p-ERK; type: cell-based
From the text: as §1

MITF = test: Western blot of B16-F10 cells: MITF; type: cell-based
Method: as §3
Microphthalmia-associated transcription factor (MITF) is a transcription factor controlling tyrosinase and TRP-1 expression in cells, with a helix-loop-helix leucine zipper structure, capable of regulation of melanogenesis and survival and proliferation of melanocytes.

melanoma cells (B16-F10) = test: Cell viability assay (MTT), melanoma cells; type: cell-based; settings: 24 hours; for cell toxicity to melanoma cells (B16-F10): under effective concentration to inhibit melanin
Method: as §2

[4] = concentration increased to 5 mM

| Compound | concentration added to achieve the same inhibition effect on melanin content (melanin of B16-F10 cells; MSH added) [mM] | concentration added to achieve the same inhibition effect on melanin content (melanin of B16-F10 cells; no MSH added) [mM] | content of TRP-2 versus concentration (TRP-2) | expression of p-MEK as concentration is increased (p-MEK) | viability of human melanocytes (human melanocytes; concentration increased to 1 mM) | expression of p-AKT as concentration is increased (p-AKT) | content of tyrosinase as concentration is increased (tyrosinase) | inhibition of melanin of B16-F10 cells (melanin of B16-F10 cells; MSH added) | inhibition of melanin of B16-F10 cells (melanin of B16-F10 cells; MSH not added) | inhibition of melanin when PD98059 and LY294002 are simultaneously added ([1]; with PD98059 and LY294002) | content of TRP-1 as concentration is increased (TRP-1) | inhibition of polyphenol oxidase in the apple juice [2] | tyrosinase activity of B16-F10 cells as concentration was increased ([3]; MSH added (50 nM)) | tyrosinase activity of B16-F10 cells as concentration was increased ([3]; no MSH added) | expression of p-ERK as concentration is increased (p-ERK) | content of MITF as concentration is increased (MITF) | cell toxicity to melanoma cells (B16-F10) (melanoma cells (B16-F10)) | effect on melanin content in cells ([1]; inhibitor added) | viability of human melanocytes (human melanocytes; [4]) | viability of B16-F10 melanoma cells (melanoma cells (B16-F10); [4]) |
| --- | --- | --- | --- | --- | --- | --- | --- | --- | --- | --- | --- | --- | --- | --- | --- | --- | --- | --- | --- | --- |
| O=c1cc(CO)occ1O [kojic acid, reference compound] | 1.5 | 1.5 |  |  |  |  |  |  |  |  |  |  |  |  |  |  |  |  |  |  |
| O=C(NO)c1cccnc1 [nicotinyl hydroxamic acid] | 0.04 | 0.06 | irrelevant to the concentration | increased | still alive | increased | reduced | effectively inhibited | effectively inhibited | reduced | reduced | effectively inhibited | decreased | decreased | increased | reduced | low cell toxicity |  |  |  |
| COc1cccc(-c2cc(=O)c3ccccc3o2)c1N [PD98059, reference compound] |  |  |  |  |  |  |  |  |  |  |  |  |  |  |  |  |  | increases melanin content |  |  |
| C[n+]1cccc(C(=O)NO)c1 [N-methyl nicotinic acid hydroxamate iodide] |  |  |  |  |  |  |  | achieved the same effects | achieved the same effects |  |  | effectively inhibited | decreased | decreased |  |  | low cell toxicity |  | still alive | still alive |
